# Several values for one entry are separate records, joined by “and”; a condition that tells them apart may be missing. Equal entries are not always repeated.
# What was measured:
# UA196 worms [1] = assay: ROS level in UA196 worms (H2DCFDA dye); format: in vivo, C. elegans
# Method: The worm strains were bleached at the same time and the eggs were incubated on PLATE 1. On day two, the worms were divided into two batches. One half of the worms were transferred (using M9 buffer) on PLATE 2 (without ligand) and the second half of the worms were transferred to PLATE 3 (with ligand). The concentration of the ligands was 50 µM as described in the main manuscript. On day four, the ligand (10–50 μM in M9 buffer with 0.1%-0.5% DMSO, v/v) was spotted again atop the PLATE 3 at 20 °C. The worms were incubated on PLATE 2 or PLATE 3 up to day eight at 20 °C in an incubator with constant humidity. On day eight, the worms were transferred into 1.7 mL microcentrifuge tubes using M9 buffer (1 mL) and washed with M9 buffer (1 mL and three times) by centrifugation for 2 min at 700xg and 20 °C. Subsequently, a total of 100 worms/well were transferred to a Costar 96-well black plate (Corning, Kennebunk, ME) containing 100 μL solution, including M9 buffer (89 μL), worm solution (10 μL and 100 worms), and 2’,7’-dichlorofluorescein diacetate (H2DCFDA) dye (1 μL, 50 μM, stock solution = 5 mM in cell culture grade DMSO, 99% pure). As a control, 99 μL of M9 buffer and 1 μL of 5 mM H2DCFDA reaction solution was placed in the wells. Subsequently, the Costar 96-well plate was gently shaken for 30 sec at 20 °C and the fluorescence intensity was measured (λex = 485 nm and λem = 530 nm) at multiple time points (0 to 120 min) using the Infinite M200 Pro Plate Reader (Tecan, Männedorf, Switzerland)[65],[89].
# For confocal imaging, the same UA196 worms (in the absence and presence of ligands) used for the quantification of ROS, were transferred from the 96-well plate into PLATE 2, air-dried into the sterile laminar flow hood. The worms ( ~ 10 worms) were transferred to a cover slide containing an anesthetic (40 mM sodium azide) and mounted on a glass microscope slide containing 2% agarose pads for the confocal imaging as described in the previous sections. This experiment consisted of three biological replicates and each biological replicate consisted of three technical replicates.
# UA196 worms [2] = assay: Motility assay of UA196 worms; format: in vivo, C. elegans
# Method: Briefly, all worm strains were bleached at the same time and the eggs were incubated on PLATE 1. On day two, the worms were divided into two batches. […] The liquid media for PLATE 4 A/B was prepared with 67.28% (v/v) of M9 buffer, 75 μM FUDR, 0.1% of 1 M magnesium sulfate (v/v), 0.1% of 1 M calcium chloride (v/v), 2.5% of 1 M potassium phosphate solution (pH 6, v/v), and 30% (v/v) of OP50 (0.5 OD600nm). […] To test the effect of each ligand on disease worm strains (NL5901 or UA196), there were four conditions were used in PLATE 4 A/B: […] The assay was started on day four using the WMicroTracker ARENA plate reader (Phylumtech, Santa Fe, Argentina) at 20 °C for 1 h per day over a 14-day period at intervals of 24 h. The WMicroTracker ARENA plate reader uses a large array of infrared light microbeams in each well of the plate to detect the interference caused by the movement of the worms. The output by the ARENA plate reader is an average of the overall movement of all worms present in each well, which is denoted as the motility of the worms in each well. […] After collecting the data each day, the PLATE 4 A/B was again placed on the shaker (100 rpm) at 20 °C in the incubator. The PLATE 4 A/B was on the on the shaker (100 rpm) at 20 °C in the incubator the whole duration of the experiment except only when the reading was collected on the WMicroTracker ARENA plate reader for 1 h.
compound,measurement,setting,value
Cc1ccc(NC(=O)c2ccc(NC(=O)c3ccc([N+](=O)[O-])c(NCCc4c[nH]c5ccccc45)n3)c(NCC3CCCCC3)n2)c(OCC(=O)O)n1 [NS132],"intracellular ROS level in UA196 worms, in words","UA196 worms [1]; 50 µM ligand on day two and four, day eight",low
same,"ROS dye signal, Average","UA196 worms [1]; UA196+NS132, Time 0 min",169.8
same,"ROS dye signal, Average","UA196 worms [1]; UA196+NS132, Time 60 min",210.6
same,"ROS dye signal, Average","UA196 worms [1]; UA196+NS132, Time 120 min",301.6
same,"motility of UA196 worms, in words","UA196 worms [2]; 50 µM ligand (day two and day four), during the aging process",noticeable rescue
same,Motility (activity counts),"UA196 worms [2]; UA196+NS132, Day 4, per trial",206 and 197 and 180 and 188
same,Motility (activity counts),"UA196 worms [2]; UA196+NS132, Day 5, per trial",205 and 178 and 179 and 183
same,Motility (activity counts),"UA196 worms [2]; UA196+NS132, Day 6, per trial",161 and 191 and 157 and 201
same,Motility (activity counts),"UA196 worms [2]; UA196+NS132, Day 7, per trial",139 and 152 and 174 and 165
same,Motility (activity counts),"UA196 worms [2]; UA196+NS132, Day 8, per trial",150 and 125 and 135 and 134
same,Motility (activity counts),"UA196 worms [2]; UA196+NS132, Day 9, per trial",143 and 94 and 105 and 78
same,Motility (activity counts),"UA196 worms [2]; UA196+NS132, Day 10, per trial",97 and 68 and 112
same,Motility (activity counts),"UA196 worms [2]; UA196+NS132, Day 13, per trial",24 and 17 and 22 and 19
same,Motility (activity counts),"UA196 worms [2]; UA196+NS132, Day 14, per trial",19 and 14 and 23

# Source: publication PMC11061149, “Protein mimetic 2D FAST rescues alpha synuclein aggregation mediated early and post disease Parkinson’s phenotypes” (Nature Communications, 2024)
